The results in this text go back to patent US6653478B2, “Substituted benzimidazol-2-ones as vasopressin receptor antagonists and neuropeptide Y modulators” (Ortho-McNeil Pharmaceutical, Inc., priority 2000, dated 2003).

Where a name gives a salt, the structure may show the parent alone.

One assay concerns the target human V1a receptor (Homo sapiens, UniProt P37288). Briefly: V1a binding assay (3H-AVP displacement, HEK-293 membranes). Further details: expressed in transfected cells; host or cells: HEK-293 (membranes). In short, it runs like this: (§1)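 Each well: membranes, test compound (from 10% DMSO working stock), 3H-AVP. Buffer pH 7.5 with 0.1% BSA and protease inhibitors; 1 h, room temperature. Non-specific binding: 1.25 μM AVP. Filter, wash, count.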

In another assay the target is T1, human V1b receptor (Homo sapiens, UniProt P47901).
T1 sequence (P47901 1-424): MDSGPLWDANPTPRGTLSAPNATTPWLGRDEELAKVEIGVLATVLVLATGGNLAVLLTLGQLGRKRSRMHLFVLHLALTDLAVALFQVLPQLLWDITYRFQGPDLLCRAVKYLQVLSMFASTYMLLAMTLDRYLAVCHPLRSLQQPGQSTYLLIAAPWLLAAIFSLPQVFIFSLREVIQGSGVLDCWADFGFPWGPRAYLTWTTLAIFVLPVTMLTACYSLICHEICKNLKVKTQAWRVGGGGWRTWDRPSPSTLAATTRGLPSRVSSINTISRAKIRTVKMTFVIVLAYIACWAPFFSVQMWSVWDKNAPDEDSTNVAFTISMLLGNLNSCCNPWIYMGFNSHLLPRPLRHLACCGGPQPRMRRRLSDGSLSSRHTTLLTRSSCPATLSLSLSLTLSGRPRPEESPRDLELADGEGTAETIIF
Briefly: V1b binding assay (3H-AVP displacement, HEK-293 membranes). The note with it: for inhibition at 10 µM: read-out: V1b % Inh @10. Further details: expressed in transfected cells; host or cells: HEK-293 (membranes). In short, it runs like this: as §1

A word on the IC50: it is the concentration at which inhibition is half-maximal.

Chain of human V1a receptor (P37288 whole entry): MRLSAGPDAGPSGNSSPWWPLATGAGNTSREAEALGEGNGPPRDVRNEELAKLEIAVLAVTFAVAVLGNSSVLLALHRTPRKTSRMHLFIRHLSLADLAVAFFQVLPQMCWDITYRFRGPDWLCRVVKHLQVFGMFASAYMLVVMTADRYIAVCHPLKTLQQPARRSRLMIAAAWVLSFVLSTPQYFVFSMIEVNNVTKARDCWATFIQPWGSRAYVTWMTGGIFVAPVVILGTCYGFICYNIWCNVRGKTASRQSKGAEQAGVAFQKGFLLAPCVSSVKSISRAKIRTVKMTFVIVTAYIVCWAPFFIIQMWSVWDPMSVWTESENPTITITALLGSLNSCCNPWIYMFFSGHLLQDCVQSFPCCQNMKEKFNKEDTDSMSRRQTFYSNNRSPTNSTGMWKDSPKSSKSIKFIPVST

With “1-[(N1-Piperidinocarbothioyl-(1-L-carboxymethyl-2-phenylamino)-4-yl]-3-(3-aminopropyl)-1,3-dihydrobenzimidazol-2-one Hydrochloride [Compound 57]”, the IC50 at human V1a receptor came to 0.26 µM. At human V1b receptor (10 μM compound), the “V1b % Inh @10” value was 25%@10.
On to `CCN(CC)CCn1c(=O)n(C2CCN(C(=S)NC(c3ccccc3)c3ccccc3)CC2)c2ccccc21` [Compound 35, 1-(N1-Piperidinocarbothioyldiphenylmethylamino-4-yl)-3-(2-diethyaminoethyl)-1,3-dihydrobenzimidazol-2-one], for which the IC50 at human V1a receptor was found to be 0.075 µM. Besides, at human V1b receptor (1.0 μM compound, read-out: V1b@1.0, % Inh), the inhibition at 1 µM was found to be 47%.
On human V1a receptor, `CCN(CC)CCn1c(=O)n(C2CCN(C(=S)NC(Cc3ccccc3)C(=O)OC)CC2)c2ccccc21` [Compound 42, 1-(N1-Piperidinocarbothioyl-(2-phenyl-1-L-carboxymethyl)amino-4-yl)-3-(2-diethyaminoethyl)-1,3-dihydrobenzimidazol-2-one] came in with an IC50 of 0.038 µM. The inhibition at 10 µM on human V1b receptor (10 μM compound) stood at 37%.
Consider `NCCCn1c(=O)n(C2CCN(C(=S)NC(c3ccccc3)c3ccccc3)CC2)c2ccccc21` [Compound 55, 1-[(N1-Piperidinocarbothioyldiphenylmethylamino)-4-yl]-3-(3-aminopropyl)-1,3-dihydrobenzimidazol-2-one Monohydrochloride], for which the IC50 at human V1a receptor amounted to 0.027 µM; on human V1b receptor, 5.1 µM.
For the compound `N=C(N)NCCCn1c(=O)n(C2CCN(C(=S)NC(c3ccccc3)c3ccccc3)CC2)c2ccccc21` [Compound 59, 1-[(N1-Piperidinocarbothioyldiphenylmethylamino)-4-yl]-3-(3-guanidinopropyl)-1,3-dihydrobenzimidazol-2-one], the IC50 on human V1a receptor came to 0.032 µM; at human V1b receptor, 4.1 µM. In addition, the inhibition at 10 µM on human V1b receptor (10 μM compound) amounted to 62%.
